The source made the active and inactive calls. No cut-off for these calls is given here.
Assays:
[1] = system: CD4+ve Th; assay: (§1) Inhibition of aerobic glycolysis in anti-CD3/CD28 stimulated C57BL/6 mouse mesenteric lymph node CD4+ve Th cells assessed as reduction in glucose uptake level at 0.3 to 3 uM incubated for 96 hrs in presence of recombinant human TGF-beta, recombinant mouse IL-6 and recombinant mouse IL-23 by NBDG staining based immunofluorescence analysis; assay type: functional, cell-based; conditions: dose 0.3-3 µM
[2] = Toxicity in C57BL/6 mouse assessed as histological change in liver at 6.25 to 25 mg/kg, po for 10 days consecutively by H and E staining based microscopy; assay type: organism-based; conditions: in vivo, 240 h, dose 6.25-25 mg/kg, time 10 day
[3] = system: Mus musculus; assay: Anti-colitis activity against DSS-induced ulcerative colitis C57BL/6 mouse model assessed as downregulation of RORC mRNA expression level in mesenteric lymph nodes at 12.5 to 25 mg/kg, po for 10 days consecutively by qPCR assay; assay type: functional, organism-based; conditions: dose 12.5-25 mg/kg, time 10.0 day
[4] = Microsomal stability in rat liver microsomes assessed as intrinsic clearance; assay type: ADME, Microsome; conditions: read-out: CLH
[5] = system: CD4+ve Th; assay: as §1, with “downregulation of HK2 protein expression” for “reduction in glucose uptake”, “Western blot” for “NBDG staining based immunofluorescence”; assay type: functional, cell-based; conditions: dose 0.3-3 µM
[6] = Microsomal stability in rat liver microsomes assessed as half life; assay type: ADME, Microsome
[7] = system: CD4+ve Th; assay: as §1, with “downregulation of Hk2 mRNA expression” for “reduction in glucose uptake”, “qPCR” for “NBDG staining based immunofluorescence”; assay type: functional, cell-based; conditions: dose 0.3-3 µM
[8] = Inhibition of Treg cells differentiation in anti-CD3/CD28 stimulated C57BL/6 mouse mesenteric lymph node CD4+ve Th cells assessed as decrease in proportion of Foxp3-positive Treg cells at 1 uM incubated for 96 hrs in presence of recombinant human TGF-beta by flow cytometry (Rvb= 21.1%); assay type: functional; conditions: C57BL/6, CD4+ve Th
[9] = system: Mus musculus; assay: Anti-colitis activity against TNBS-induced ulcerative colitis BALB/c mouse model assessed as decrease in mucosal damage in colon at 12.5 to 25 mg/kg, po for consecutive 7 days by H and E staining based microscopy; assay type: functional, organism-based; conditions: dose 12.5-25 mg/kg, time 7.0 day
[10] = system: Mus musculus; assay: Anti-colitis activity against DSS-induced ulcerative colitis C57BL/6 mouse model assessed as reduction in mucosal damage in colon at 12.5 to 25 mg/kg, po for 10 days consecutively by H and E staining based microscopic analysis; assay type: functional, organism-based; conditions: dose 12.5-25 mg/kg, time 10.0 day
[11] = system: CD4+ve Th; assay: as §1, with “downregulation of Glut1 mRNA expression” for “reduction in glucose uptake”, “qPCR” for “NBDG staining based immunofluorescence”; assay type: functional, cell-based; conditions: dose 0.3-3 µM
[12] = system: Mus musculus; assay: Anti-colitis activity against DSS-induced ulcerative colitis C57BL/6 mouse model assessed as downregulation of IL17a mRNA expression level in mesenteric lymph nodes at 12.5 to 25 mg/kg, po for 10 days consecutively by qPCR assay; assay type: functional, organism-based; conditions: dose 12.5-25 mg/kg, time 10.0 day
[13] = system: Mus musculus; assay: Anti-colitis activity against TNBS-induced ulcerative colitis BALB/c mouse model assessed as increase in survival rate at 12.5 to 25 mg/kg, po for consecutive 7 days; assay type: functional, organism-based; conditions: dose 12.5-25 mg/kg, time 7.0 day
[14] = Inhibition of Treg cells differentiation in anti-CD3/CD28 stimulated C57BL/6 mouse mesenteric lymph node CD4+ve Th cells assessed as decrease in proportion of Foxp3-positive Treg cells at 0.1 uM incubated for 96 hrs in presence of recombinant human TGF-beta by flow cytometry (Rvb= 21.1%); assay type: functional; conditions: C57BL/6, CD4+ve Th
[15] = system: Mus musculus; assay: Anti-colitis activity against TNBS-induced ulcerative colitis BALB/c mouse model assessed as decrease in crypt necrosis in colon at 12.5 to 25 mg/kg, po for consecutive 7 days by H and E staining based microscopy; assay type: functional, organism-based; conditions: dose 12.5-25 mg/kg, time 7.0 day
[16] = Toxicity in C57BL/6 mouse assessed as histological change in lung at 6.25 to 25 mg/kg, po for 10 days consecutively by H and E staining based microscopy; assay type: organism-based; conditions: in vivo, 240 h, dose 6.25-25 mg/kg, time 10 day
[17] = system: Mus musculus; assay: Anti-colitis activity against DSS-induced ulcerative colitis C57BL/6 mouse model assessed as decrease in percentage of Th17 cells in colonic lamina propria at 12.5 to 25 mg/kg, po for 10 days consecutively by flow cytometry; assay type: functional, organism-based; conditions: dose 12.5-25 mg/kg, time 10.0 day
[18] = Toxicity in C57BL/6 mouse assessed as histological change in kidney at 6.25 to 25 mg/kg, po for 10 days consecutively by H and E staining based microscopy; assay type: organism-based; conditions: in vivo, 240 h, dose 6.25-25 mg/kg, time 10 day
[19] = system: CD4+ve Th; assay: (§2) Inhibition of Th17 cells differentiation in anti-CD3/CD28 stimulated C57BL/6 mouse mesenteric lymph node CD4+ve Th cells assessed as downregulation of IL17f mRNA expression level at 0.1 to 3 uM incubated for 96 hrs in presence of recombinant human TGF-beta, recombinant mouse IL-6 and recombinant mouse IL-23 by qPCR analysis; assay type: functional, cell-based; conditions: dose 0.1-3 µM
[20] = Inhibition of Treg cells differentiation in anti-CD3/CD28 stimulated C57BL/6 mouse mesenteric lymph node CD4+ve Th cells assessed as decrease in proportion of Foxp3-positive Treg cells at 3 uM incubated for 96 hrs in presence of recombinant human TGF-beta by flow cytometry (Rvb= 21.1%); assay type: functional; conditions: C57BL/6, CD4+ve Th
[21] = system: CD4+ve Th; assay: as §2, with “IL17a” for “IL17f”; assay type: functional, cell-based; conditions: dose 0.1-3 µM
[22] = system: CD4+ve Th; assay: Effect on apoptosis in C57BL/6 mouse mesenteric lymph node CD4+ve Th cells assessed as apoptotis rate at 0.3 to 3 uM incubated for 96 hrs by Annexin-V/PI staining based flow cytometry; assay type: functional, cell-based; conditions: dose 0.3-3 µM
[23] = Oral bioavailability in Sprague-Dawley rat at 75 mg/kg and measured upto 24 hrs by LC-MS/MS analysis; assay type: ADME, organism-based; conditions: in vivo
[24] = Half life in Sprague-Dawley rat at 75 mg/kg,po and measured upto 24 hrs by LC-MS/MS analysis; assay type: ADME, organism-based; conditions: in vivo
[25] = system: Mus musculus; assay: Anti-colitis activity against DSS-induced ulcerative colitis C57BL/6 mouse model assessed as downregulation of RORC mRNA expression level in spleen at 12.5 to 25 mg/kg, po for 10 days consecutively by qPCR assay; assay type: functional, organism-based; conditions: dose 12.5-25 mg/kg, time 10.0 day

With `C=C1C(=O)O[C@H]2[C@H]1CC[C@@]1(C)[C@@H](CC[C@@]3(C)O[C@@H]23)C1(F)F` the inhibition [1] was “Active”, the Activity [2] was “Non-Toxic” and the Activity [3] was “Active”. The microsomal CLint [4] was 110 µL/min/mg, the inhibition [5] was “Active” and the half-life [6] was 0.21 h. The inhibition [7] was “Active”, the Foxp3+ cells at 1 µM [8] was 22.8% and the Activity [9] was “Active”. For the same compound, the Activity [10] was “Active”, the inhibition [11] was “Active” and the Activity [12] was “Active”. The Activity [13] was “Active”, the Foxp3+ cells at 0.1 µM [14] was 20.3% and the Activity [15] was “Active”. For the same compound, the Activity [16] was “Non-Toxic”, the Activity [17] was “Active” and the Activity [18] was “Non-Toxic”. For the same compound, the inhibition [19] was “Active”, the Foxp3+ cells at 3 µM [20] was 20.8% and the inhibition [21] was “Active”. For the same compound, the Activity [22] was “inactive”, the bioavailability [23] was 2.8% and the half-life [24] was 8 h. The Activity [25] was “Active”.

— ChEMBL document CHEMBL5338738, “Discovery of Novel Sesquiterpene Lactone Derivatives as Potent PKM2 Activators for the Treatment of Ulcerative Colitis” (J Med Chem, 2023)
